# In US20160250303A1, “PERFORIN-2 ACTIVATORS AND INHIBITORS AS DRUG TARGETS FOR INFECTIOUS DISEASE AND GUT INFLAMMATION” (UNIVERSITY OF MIAMI, priority 2013, published 2016):
# Tested on: P-2 mediated bacterial killing
# Assay: Perforin-2 mediated killing of MRSA by BV2 phagocytic cells in vitro (FIG. 14c)
# Conditions: phagocytic cell BV2, in vitro, listed as MLN4294
structure (smiles),measurement,value
NS(=O)(=O)OC[C@@H]1CC(n2ccc3c(N[C@H]4CCc5ccccc54)ncnc32)C[C@@H]1O (stereo partly shown) [MLN 4924],P-2 mediated bacterial killing,blocked
